System: 653999-131-R-J2-PDC complex spheroids, growth inhibition
Assay: Anticancer human tumor 653999-131-R-J2-PDC patient-derived lung adenocarcinoma cell line growth inhibition [RAS]
Details: for IC50: curve of first compound; for viability, T/C: stronger effect = lower value
Method in brief: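 Agents were tested in combination matrices in half-log decrements from a top concentration at or near clinical Cmax (10 microM if undetermined). Targets were multi-cell spheroids of tumour lines plus HUVEC and MSC stromal cells.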
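Note: spheroids exposed to the agents for seven days before the readout.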

O=C(c1ccc(F)c(F)c1Nc1ccc(I)cc1F)N1CC(O)([C@@H]2CCCCN2)C1 + C=CC(=O)N1CCN(c2nc(OCC3CCCN3C)nc3c(F)c(-c4nc(N)cc(C)c4C(F)(F)F)c(Cl)cc23)C(C)C1
IC50 (second compound 0.00316 µM): 96.1 nM | IC50 (second compound 0.01 µM): 49.2 nM | IC50 (second compound 0.0316 µM): 111 nM | IC50 (second compound 0.1 µM): 63.8 nM | IC50 (second compound 0.316 µM): 87.3 nM | IC50 (second compound 1 µM): 70.3 nM | viability, T/C (second compound 0.00316 µM, first compound 0.00316 µM): 86.1% | viability, T/C (second compound 0.00316 µM, first compound 0.01 µM): 83.1% | viability, T/C (second compound 0.00316 µM, first compound 0.0316 µM): 63.8% | viability, T/C (second compound 0.00316 µM, first compound 0.1 µM): 53.6% | viability, T/C (second compound 0.00316 µM, first compound 0.316 µM): 25% | viability, T/C (second compound 0.00316 µM, first compound 1 µM): 10.2% | viability, T/C (second compound 0.01 µM, first compound 0.00316 µM): 94.1% | viability, T/C (second compound 0.01 µM, first compound 0.01 µM): 83.3% | viability, T/C (second compound 0.01 µM, first compound 0.0316 µM): 53.2% | viability, T/C (second compound 0.01 µM, first compound 0.1 µM): 37.7% | viability, T/C (second compound 0.01 µM, first compound 0.316 µM): 24.1% | viability, T/C (second compound 0.01 µM, first compound 1 µM): 8.42% | viability, T/C (second compound 0.0316 µM, first compound 0.00316 µM): 105% | viability, T/C (second compound 0.0316 µM, first compound 0.01 µM): 86.6% | viability, T/C (second compound 0.0316 µM, first compound 0.0316 µM): 74.8% | viability, T/C (second compound 0.0316 µM, first compound 0.1 µM): 57.6% | viability, T/C (second compound 0.0316 µM, first compound 0.316 µM): 22.4% | viability, T/C (second compound 0.0316 µM, first compound 1 µM): 7.31% | viability, T/C (second compound 0.1 µM, first compound 0.00316 µM): 96.9% | viability, T/C (second compound 0.1 µM, first compound 0.01 µM): 80.5% | viability, T/C (second compound 0.1 µM, first compound 0.0316 µM): 60.6% | viability, T/C (second compound 0.1 µM, first compound 0.1 µM): 40.5% | viability, T/C (second compound 0.1 µM, first compound 0.316 µM): 29% | viability, T/C (second compound 0.1 µM, first compound 1 µM): 9.39% | viability, T/C (second compound 0.316 µM, first compound 0.00316 µM): 84.4% | viability, T/C (second compound 0.316 µM, first compound 0.01 µM): 69.9% | viability, T/C (second compound 0.316 µM, first compound 0.0316 µM): 65.8% | viability, T/C (second compound 0.316 µM, first compound 0.1 µM): 51.2% | viability, T/C (second compound 0.316 µM, first compound 0.316 µM): 24.5% | viability, T/C (second compound 0.316 µM, first compound 1 µM): 9.08% | viability, T/C (second compound 1 µM, first compound 0.00316 µM): 100% | viability, T/C (second compound 1 µM, first compound 0.01 µM): 79% | viability, T/C (second compound 1 µM, first compound 0.0316 µM): 60.3% | viability, T/C (second compound 1 µM, first compound 0.1 µM): 48.8% | viability, T/C (second compound 1 µM, first compound 0.316 µM): 25.8% | viability, T/C (second compound 1 µM, first compound 1 µM): 11%

CC1(C)CCC(Nc2ncc(C(F)(F)F)c(-c3c[nH]c4c(P(C)(C)=O)c(C#N)ccc34)n2)CN1 (centres undefined) + CCn1c(-c2cccnc2C(C)OC)c2c3cc(ccc31)N1CCOC(CC(NC(=O)C(C(C)C)N(C)C(=O)C3(F)CCN(C(=O)C#CC(C)(C)N(C)C)CC3)C(=O)N3CCCC(N3)C(=O)OCC(C)(C)C2)C1
IC50 (second compound 0.000949 µM): > 300 nM | IC50 (second compound 0.003 µM): > 300 nM | IC50 (second compound 0.00949 µM): > 300 nM | IC50 (second compound 0.03 µM): > 300 nM | IC50 (second compound 0.0949 µM): > 300 nM | IC50 (second compound 0.3 µM): > 300 nM | viability, T/C (second compound 0.000949 µM, first compound 0.000949 µM): 89.4% | viability, T/C (second compound 0.000949 µM, first compound 0.003 µM): 82.6% | viability, T/C (second compound 0.000949 µM, first compound 0.00949 µM): 81.1% | viability, T/C (second compound 0.000949 µM, first compound 0.03 µM): 79.7% | viability, T/C (second compound 0.000949 µM, first compound 0.0949 µM): 84.6% | viability, T/C (second compound 0.000949 µM, first compound 0.3 µM): 71.6% | viability, T/C (second compound 0.003 µM, first compound 0.000949 µM): 96% | viability, T/C (second compound 0.003 µM, first compound 0.003 µM): 84.2% | viability, T/C (second compound 0.003 µM, first compound 0.00949 µM): 79.5% | viability, T/C (second compound 0.003 µM, first compound 0.03 µM): 77.7% | viability, T/C (second compound 0.003 µM, first compound 0.0949 µM): 84.9% | viability, T/C (second compound 0.003 µM, first compound 0.3 µM): 71.2% | viability, T/C (second compound 0.00949 µM, first compound 0.000949 µM): 99.5% | viability, T/C (second compound 0.00949 µM, first compound 0.003 µM): 89.3% | viability, T/C (second compound 0.00949 µM, first compound 0.00949 µM): 84.9% | viability, T/C (second compound 0.00949 µM, first compound 0.03 µM): 72% | viability, T/C (second compound 0.00949 µM, first compound 0.0949 µM): 79.3% | viability, T/C (second compound 0.00949 µM, first compound 0.3 µM): 87.2% | viability, T/C (second compound 0.03 µM, first compound 0.000949 µM): 85.4% | viability, T/C (second compound 0.03 µM, first compound 0.003 µM): 83.9% | viability, T/C (second compound 0.03 µM, first compound 0.00949 µM): 71% | viability, T/C (second compound 0.03 µM, first compound 0.03 µM): 74.1% | viability, T/C (second compound 0.03 µM, first compound 0.0949 µM): 77.4% | viability, T/C (second compound 0.03 µM, first compound 0.3 µM): 76.9% | viability, T/C (second compound 0.0949 µM, first compound 0.000949 µM): 80.4% | viability, T/C (second compound 0.0949 µM, first compound 0.003 µM): 66.8% | viability, T/C (second compound 0.0949 µM, first compound 0.00949 µM): 67.5% | viability, T/C (second compound 0.0949 µM, first compound 0.03 µM): 68% | viability, T/C (second compound 0.0949 µM, first compound 0.0949 µM): 74% | viability, T/C (second compound 0.0949 µM, first compound 0.3 µM): 70.3% | viability, T/C (second compound 0.3 µM, first compound 0.000949 µM): 82.3% | viability, T/C (second compound 0.3 µM, first compound 0.003 µM): 71.7% | viability, T/C (second compound 0.3 µM, first compound 0.00949 µM): 63.8% | viability, T/C (second compound 0.3 µM, first compound 0.03 µM): 63.9% | viability, T/C (second compound 0.3 µM, first compound 0.0949 µM): 70.8% | viability, T/C (second compound 0.3 µM, first compound 0.3 µM): 64.5%

Source: PubChem BioAssay AID2060886 (Molecular Pharmacology Branch, DTP, NCI, 2025)
